This is an account of results in ChEMBL document CHEMBL1201862, “PubChem BioAssay data set” (2004).

The IC50 is the concentration that gives 50% inhibition. For orientation: EC50 means the midpoint of the concentration-response curve. As a reminder, the AC50 is the concentration giving half of the maximal activity seen.

The target of assay [1] is Tyrosine-protein phosphatase non-receptor type 7 (Homo sapiens, UniProt P35236). In words: redox-dependent HePTP inhibition, mechanism study, biochemical, fluorescence (AID 2068). The format is functional.
Assay [2] deals with Dual specificity protein phosphatase 6 (Rattus norvegicus, UniProt Q64346). The format is functional.
In assay [3] the target is T1, Zinc finger protein mex-5 (Caenorhabditis elegans, UniProt Q9XUB2).
T1 sequence (Q9XUB2 whole entry): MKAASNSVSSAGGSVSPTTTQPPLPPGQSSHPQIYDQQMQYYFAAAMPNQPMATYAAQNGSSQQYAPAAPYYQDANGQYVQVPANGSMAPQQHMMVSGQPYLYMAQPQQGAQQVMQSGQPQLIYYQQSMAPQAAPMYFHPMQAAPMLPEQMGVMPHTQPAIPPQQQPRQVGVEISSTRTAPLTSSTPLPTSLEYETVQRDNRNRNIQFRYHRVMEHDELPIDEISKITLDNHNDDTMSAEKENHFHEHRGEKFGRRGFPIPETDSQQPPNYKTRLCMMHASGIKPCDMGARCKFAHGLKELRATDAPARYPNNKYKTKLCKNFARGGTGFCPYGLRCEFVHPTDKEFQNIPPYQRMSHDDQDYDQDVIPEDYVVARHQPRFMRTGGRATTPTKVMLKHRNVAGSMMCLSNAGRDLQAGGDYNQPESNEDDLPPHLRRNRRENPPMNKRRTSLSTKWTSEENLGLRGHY
As to the kind of experiment: MEX-5/TCR-2 RNA interaction inhibitors, dose response, biochemical, C. elegans, fluorescence polarization (AID 1960). For orientation: Fluorescence polarisation rises when a labelled molecule tumbles more slowly, as on binding a larger partner.

Another assay addresses Keap1/Nrf2 (Homo sapiens, UniProt Q14145). As to the kind of experiment: Keap1-Nrf2 protein-protein interaction inhibitors, dose response, biochemical, fluorescence polarization, cherry-picked samples (AID 588683).
In assay [4] the target is E3 ubiquitin-protein ligase XIAP (Homo sapiens, UniProt P98170). As to the kind of experiment: Counter Screen using XIAP-Bir3 for Chemical Antagonists of Bir1/2 domains of IAP-family anti-apoptotic proteins. [Related pubchem assays (depositor defined):AID1018, AID1449, AID1514, AID1638, AID1749, AID1750, AID488957, AID488963].
Assay [5] has as its target T2, RNA-binding protein pos-1 (Caenorhabditis elegans, UniProt G5EF15).
T2 sequence (G5EF15 whole entry): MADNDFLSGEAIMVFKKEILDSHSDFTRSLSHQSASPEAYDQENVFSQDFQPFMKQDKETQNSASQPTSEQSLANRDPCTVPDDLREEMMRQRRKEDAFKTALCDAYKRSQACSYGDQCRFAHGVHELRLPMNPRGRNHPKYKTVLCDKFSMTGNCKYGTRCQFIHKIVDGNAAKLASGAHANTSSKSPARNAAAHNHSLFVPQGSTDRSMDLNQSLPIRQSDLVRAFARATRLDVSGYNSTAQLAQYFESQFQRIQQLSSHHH
As to the kind of experiment: inhibitors of POS-1/mex-3 RNA binding, dose response, biochemical, fluorescence polarization (AID 1964).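 Note: purified POS-1 fused to maltose binding protein made in E. coli; potency of compounds blocking POS-1 binding to fluorescent RNA.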

The next assay concerns the target ORF 73 (Human herpesvirus 8, UniProt O40947). In words: inhibitors of C-LANA binding to LBS DNA, dose response, biochemical, fluorescence polarization, cherry-picked samples (AID 504725).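 Note: fluorescence polarization of a labeled DNA duplex reporting LANA DNA binding; potency is for inhibitors that block LANA binding to the DNA.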 More on the design: species or system Human gammaherpesvirus 8.
Assay [6] deals with UDP-galactopyranose mutase (Mycobacterium tuberculosis, UniProt P9WIQ1). In words: Inhibitors of Mycobacterium tuberculosis UDP-galactopyranose mutase (UGM) enzyme Measured in Biochemical System Using Plate Reader - 2105-02_Inhibitor_Dose_CherryPick_Activity. [Related pubchem assays (depositor defined):AID504439].
Another assay has as its target Protein S100-A4 (Homo sapiens, UniProt P26447). In words: S100A4-myosin IIA binding inhibitor potency, dose response, biochemical, fluorescence polarization, cherry-picked hits (AID 687001). The format is functional.
Assay [7] has as its target T3, Fibrinogen beta chain (Homo sapiens, UniProt P02675).
T3 sequence (P02675 whole entry): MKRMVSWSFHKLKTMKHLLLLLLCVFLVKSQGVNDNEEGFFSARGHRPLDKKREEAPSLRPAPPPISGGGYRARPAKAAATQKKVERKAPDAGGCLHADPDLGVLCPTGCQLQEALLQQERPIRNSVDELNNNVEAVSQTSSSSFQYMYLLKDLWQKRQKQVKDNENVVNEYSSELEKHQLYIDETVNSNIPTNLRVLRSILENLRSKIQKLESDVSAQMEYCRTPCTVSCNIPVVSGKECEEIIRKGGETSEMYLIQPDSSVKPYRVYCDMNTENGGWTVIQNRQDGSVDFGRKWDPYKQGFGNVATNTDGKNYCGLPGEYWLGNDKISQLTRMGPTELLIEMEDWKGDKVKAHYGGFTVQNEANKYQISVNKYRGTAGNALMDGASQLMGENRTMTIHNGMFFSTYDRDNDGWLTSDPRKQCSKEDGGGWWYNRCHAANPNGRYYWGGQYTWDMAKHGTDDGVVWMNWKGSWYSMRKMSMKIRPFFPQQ
In words: Fluorescence polarization-based biochemical high throughput dose response assay to identify inhibitors that disrupt the binding of a cyclic peptide (Tn7) to the fibrin proteolytic product D-Dimer and fragment E complex [DD(E )].

Assay [8] addresses T3, Fibrinogen beta chain. In words: Fluorescence polarization-based biochemical high throughput dose response assay to identify inhibitors that disrupt the binding of a cyclic peptide (Tn6) to the fibrin proteolytic product D-Dimer and fragment E complex [DD(E )].
Assay [9] can be described thus: SFLLRN-induced P-Selectin Platelet Surface Expression Measured in Cell-Based System Using Flow Cytometry - 2016-03_Inhibitor_Dose_DryPowder_Activity_Set3. [Related pubchem assays (depositor defined):AID1678]. The format is functional.
Assay [10] in a line: Luminescence Cell-Based Dose Response Follow up to Identify Inhibitors of Platelet Dense Granule Release. [Related pubchem assays (depositor defined):AID1663, AID1678, AID1889, AID2519]. It is filed as functional.
In a further assay the test system is Candida albicans. As to the kind of experiment: reversal of fluconazole resistance in C. albicans, dose response, CaCi-2 strain, Alamar Blue, dry powder, set 3 (AID 488907). It is filed as functional, organism-based. On the technique in general: The colour change of resazurin is a common sign of viable cells or microbes.
Assay [11] can be described thus: growth suppression of PTEN-null colon cells, dose response, cell-based, HCT116 PTEN knockout (AID 1047).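 Note: HCT116 colon tumor cells with PTEN knocked out; cells exposed to compound for 60 hours before readout; potency for loss of cell viability measured by luminescence.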 The format is functional.
Assay [12] concerns the target T4, Microphthalmia-associated transcription factor (Homo sapiens, UniProt O75030).
T4 sequence (O75030 whole entry): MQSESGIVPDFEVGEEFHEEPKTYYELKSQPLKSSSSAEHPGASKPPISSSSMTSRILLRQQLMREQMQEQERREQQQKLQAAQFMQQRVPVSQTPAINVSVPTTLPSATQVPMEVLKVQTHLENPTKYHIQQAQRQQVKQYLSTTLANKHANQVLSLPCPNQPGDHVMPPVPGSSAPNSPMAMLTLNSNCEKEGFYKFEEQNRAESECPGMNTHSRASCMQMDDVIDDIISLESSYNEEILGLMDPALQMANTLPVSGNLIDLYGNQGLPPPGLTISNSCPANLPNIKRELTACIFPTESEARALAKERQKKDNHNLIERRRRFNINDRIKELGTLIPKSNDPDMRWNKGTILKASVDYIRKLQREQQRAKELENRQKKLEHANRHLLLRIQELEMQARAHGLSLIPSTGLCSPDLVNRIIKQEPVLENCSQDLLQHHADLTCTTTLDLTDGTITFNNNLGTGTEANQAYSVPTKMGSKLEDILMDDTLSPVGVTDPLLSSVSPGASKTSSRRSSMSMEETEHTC
As to the kind of experiment: TRPM1 promoter luciferase signal decrease, dose response, MITF inhibitor project, cell-based, SK-MEL-5, cherry-picked, set 3 (AID 493073).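 Note: SK-MEL-5 melanoma cells with luciferase driven by the MITF target TRPM1 promoter.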 The format is functional.

A further assay concerns A-375. As to the kind of experiment: MITF: Counter assay: A375 proliferation Measured in Cell-Based System Using Plate Reader - 2084-03_Inhibitor_Dose_DryPowder_Activity. [Related pubchem assays (depositor defined):AID488944]. It is filed as functional. To be noted: Homo sapiens.
Assay [13] can be described thus: growth suppression of beta-catenin-knockout colon cells, dose response, cell-based, HCT116, human colon tumor (AID 1045).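 Note: HCT116 colon tumor cells with beta catenin knocked out; cells exposed to compound for 60 hours.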 The format is functional.
The target in a further assay is Galanin receptor type 3 (Homo sapiens, UniProt O60755). In words: Fluorescence-based cell-based primary high throughput dose response assay to identify antagonists of the Galanin Receptor 3 (GalR3). The format is functional.
The nature of assay [14]: cytotoxicity toward DRD oncogenic fibroblasts, dose response, cell-based, non-viral oncogenic, luminescence (AID 1934). The format is functional. To be noted: Homo sapiens.
A short description of a further assay: cells. The format is functional, cell-based. To be noted: HEK-CNG.
Another assay concerns Jurkat. In words: antigen receptor-induced NF-kB inhibitors, dose response, Jurkat, luciferase reporter, luminescence, B- and T-cell (AID 489004).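 Note: NF-kB luciferase reporter Jurkat cells stimulated with PMA plus ionomycin.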 It is filed as functional, cell-based. To be noted: Homo sapiens.
The nature of assay [15]: inhibitors of HIV Env-driven cell fusion, dose response, cherry-pick (AID 652057). It is filed as functional, cell-based.
A short description of assay [16]: inhibitors of clade B AD8 Env fusion, dose response, cell-based, cherry-pick (AID 652062).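 Note: luciferase signal from cell-cell fusion driven by HIV-1 clade B AD8 Env; potency is for inhibitors of fusion seen as a drop in luminescence.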 It is filed as functional.
The subject of a further assay is INS1. In words: beta cell apoptosis inhibitors, cytokine rescue, dose response, luminescence, retest (AID 449756).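 Note: cell death triggered by IL-1 beta plus TNF-alpha plus IFN-gamma mixture; protective hits raise ATP signal compared with cytokine alone wells.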 The format is functional, cell-based. To be noted: Rattus norvegicus.
Assay [17] is described as follows: off-target signal loss in HeLa-CEM21 co-culture – HeLa F-luc CTL cells, cherry-picked, counter-screen for HIV-1 Env fusion inhibitor project, dose response (AID 652040).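 Note: potency for signal decrease marking cytotoxic or nonspecific inhibition.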 It is filed as functional, cell-based. Background: Counterscreens check selectivity or assay interference.
Assay [18] is described as follows: ZM109 Env clade C HIV-1 fusion inhibitors, dose response, HeLa effector, CEM target cells, luciferase, cherry-pick (AID 652058). It is filed as functional, cell-based.
The test system of assay [19] is BJ. In words: cells. To be noted: Homo sapiens. It is filed as functional, cell-based.
Assay [20] in a line: cytotoxicity in HEK-293T NF-kB-Luc cells, dose response, cytotoxicity control for B/T-cell NF-kB inhibitor project, cell-based, uHTS hits (AID 489019).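 Note: IC50 reflects cytotoxicity as loss of cell viability.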 The format is functional.
Assay [21] can be described thus: CEM21 lymphoblast cell cytotoxicity, dose response, cytotoxicity control for viral fusion inhibitor project, CellTiter-Glo luminescence, cherry-picked (AID 652042).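 Note: potency for signal decrease meaning cytotoxicity.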 The format is functional, cell-based.
In assay [22] the test system is BJ. In words: cytotoxicity toward BJ-TERT-LT-ST fibroblasts, dose response, cell-based, RAS-independent, luminescence (AID 1935).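 Note: BJ fibroblasts immortalized with TERT plus LT and ST oncogenes.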 It is filed as functional. To be noted: Homo sapiens.
The test system of assay [23] is BJ. As to the kind of experiment: cytotoxicity toward BJ-TERT fibroblasts, dose response, cell-based, RAS-independent, luminescence (AID 1933). It is filed as functional. To be noted: Homo sapiens.

Calls of active or inactive are those of the source.

Sequence of Protein S100-A4 (P26447 whole entry): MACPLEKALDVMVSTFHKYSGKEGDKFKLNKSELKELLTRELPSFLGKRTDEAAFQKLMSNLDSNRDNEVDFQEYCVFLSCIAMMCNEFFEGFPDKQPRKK
Sequence of E3 ubiquitin-protein ligase XIAP (P98170 whole entry): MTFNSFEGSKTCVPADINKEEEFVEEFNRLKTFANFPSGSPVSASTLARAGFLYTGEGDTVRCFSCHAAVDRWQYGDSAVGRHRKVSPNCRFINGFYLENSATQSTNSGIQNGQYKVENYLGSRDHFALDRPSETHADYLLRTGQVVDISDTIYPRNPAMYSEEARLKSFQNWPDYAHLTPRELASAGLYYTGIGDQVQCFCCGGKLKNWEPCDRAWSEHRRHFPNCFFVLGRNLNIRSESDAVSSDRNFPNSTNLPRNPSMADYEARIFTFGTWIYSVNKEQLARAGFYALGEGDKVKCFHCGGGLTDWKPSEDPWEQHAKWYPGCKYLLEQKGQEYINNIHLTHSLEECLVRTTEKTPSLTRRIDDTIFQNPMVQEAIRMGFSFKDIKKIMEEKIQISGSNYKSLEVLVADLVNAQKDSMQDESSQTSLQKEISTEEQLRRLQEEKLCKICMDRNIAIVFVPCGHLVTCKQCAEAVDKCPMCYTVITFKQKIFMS
Sequence of Galanin receptor type 3 (O60755 whole entry): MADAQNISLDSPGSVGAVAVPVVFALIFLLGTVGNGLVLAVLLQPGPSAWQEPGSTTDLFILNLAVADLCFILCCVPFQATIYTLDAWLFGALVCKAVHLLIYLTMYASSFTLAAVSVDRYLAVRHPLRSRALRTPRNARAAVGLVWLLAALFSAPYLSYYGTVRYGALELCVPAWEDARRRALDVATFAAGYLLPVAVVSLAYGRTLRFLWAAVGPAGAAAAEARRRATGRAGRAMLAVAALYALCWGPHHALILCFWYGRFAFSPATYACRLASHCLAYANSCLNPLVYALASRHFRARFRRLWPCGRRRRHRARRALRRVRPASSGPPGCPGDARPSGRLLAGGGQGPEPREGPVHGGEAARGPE
Sequence of Keap1/Nrf2 (Q16236 whole entry): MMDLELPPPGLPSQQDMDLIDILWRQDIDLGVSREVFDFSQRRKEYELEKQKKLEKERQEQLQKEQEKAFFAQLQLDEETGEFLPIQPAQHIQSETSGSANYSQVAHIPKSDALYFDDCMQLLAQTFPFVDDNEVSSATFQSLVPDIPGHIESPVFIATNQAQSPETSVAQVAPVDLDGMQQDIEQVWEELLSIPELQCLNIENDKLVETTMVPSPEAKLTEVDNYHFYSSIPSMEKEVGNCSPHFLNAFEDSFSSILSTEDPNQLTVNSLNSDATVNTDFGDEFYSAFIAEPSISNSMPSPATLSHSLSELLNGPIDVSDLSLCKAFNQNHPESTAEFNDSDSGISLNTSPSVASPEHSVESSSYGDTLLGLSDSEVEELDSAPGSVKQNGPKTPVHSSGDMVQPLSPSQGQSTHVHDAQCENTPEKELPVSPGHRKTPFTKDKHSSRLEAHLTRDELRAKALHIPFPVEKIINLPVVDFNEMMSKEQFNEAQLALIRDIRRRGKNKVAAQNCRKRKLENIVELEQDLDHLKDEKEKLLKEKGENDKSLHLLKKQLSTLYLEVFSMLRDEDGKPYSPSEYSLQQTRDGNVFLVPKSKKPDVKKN
Sequence of Keap1/Nrf2 (Q14145 whole entry): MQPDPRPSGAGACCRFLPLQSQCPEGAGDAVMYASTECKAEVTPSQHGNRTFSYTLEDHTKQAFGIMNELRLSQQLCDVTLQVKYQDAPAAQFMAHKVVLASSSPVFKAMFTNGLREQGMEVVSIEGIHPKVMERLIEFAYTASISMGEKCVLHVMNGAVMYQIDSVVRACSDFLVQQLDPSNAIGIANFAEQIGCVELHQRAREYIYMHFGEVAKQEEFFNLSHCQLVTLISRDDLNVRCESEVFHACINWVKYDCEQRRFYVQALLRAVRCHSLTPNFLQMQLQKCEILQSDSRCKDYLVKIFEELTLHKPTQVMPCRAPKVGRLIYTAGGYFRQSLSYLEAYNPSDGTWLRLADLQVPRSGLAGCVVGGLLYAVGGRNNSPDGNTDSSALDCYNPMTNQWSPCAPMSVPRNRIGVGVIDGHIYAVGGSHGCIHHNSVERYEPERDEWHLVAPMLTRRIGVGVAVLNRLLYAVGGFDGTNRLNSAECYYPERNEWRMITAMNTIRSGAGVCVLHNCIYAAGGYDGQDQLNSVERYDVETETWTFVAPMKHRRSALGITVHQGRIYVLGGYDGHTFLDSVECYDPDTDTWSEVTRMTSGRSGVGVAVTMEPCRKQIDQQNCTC
Sequence of UDP-galactopyranose mutase (P9WIQ1 whole entry): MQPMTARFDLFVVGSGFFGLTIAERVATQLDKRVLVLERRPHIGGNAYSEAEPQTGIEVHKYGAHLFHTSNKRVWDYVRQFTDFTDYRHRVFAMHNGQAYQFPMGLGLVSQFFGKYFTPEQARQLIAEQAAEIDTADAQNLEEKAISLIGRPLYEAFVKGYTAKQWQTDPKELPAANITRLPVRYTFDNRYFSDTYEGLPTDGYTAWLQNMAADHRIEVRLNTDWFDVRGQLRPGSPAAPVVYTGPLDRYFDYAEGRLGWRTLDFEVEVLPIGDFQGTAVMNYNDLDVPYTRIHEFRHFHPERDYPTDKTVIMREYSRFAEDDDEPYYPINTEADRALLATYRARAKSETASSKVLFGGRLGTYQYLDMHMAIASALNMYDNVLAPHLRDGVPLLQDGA
Sequence of Dual specificity protein phosphatase 6 (Q64346 whole entry): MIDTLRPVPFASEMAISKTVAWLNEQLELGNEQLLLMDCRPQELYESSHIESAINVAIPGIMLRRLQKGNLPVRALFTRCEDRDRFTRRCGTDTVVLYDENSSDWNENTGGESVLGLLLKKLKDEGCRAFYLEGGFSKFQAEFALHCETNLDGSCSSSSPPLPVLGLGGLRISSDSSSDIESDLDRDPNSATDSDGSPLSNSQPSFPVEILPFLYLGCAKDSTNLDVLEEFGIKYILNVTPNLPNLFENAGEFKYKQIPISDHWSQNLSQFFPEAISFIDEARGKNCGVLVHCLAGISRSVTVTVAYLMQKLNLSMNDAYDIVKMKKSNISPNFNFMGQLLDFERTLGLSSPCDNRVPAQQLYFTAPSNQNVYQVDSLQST
Sequence of ORF 73 (O40947 whole entry): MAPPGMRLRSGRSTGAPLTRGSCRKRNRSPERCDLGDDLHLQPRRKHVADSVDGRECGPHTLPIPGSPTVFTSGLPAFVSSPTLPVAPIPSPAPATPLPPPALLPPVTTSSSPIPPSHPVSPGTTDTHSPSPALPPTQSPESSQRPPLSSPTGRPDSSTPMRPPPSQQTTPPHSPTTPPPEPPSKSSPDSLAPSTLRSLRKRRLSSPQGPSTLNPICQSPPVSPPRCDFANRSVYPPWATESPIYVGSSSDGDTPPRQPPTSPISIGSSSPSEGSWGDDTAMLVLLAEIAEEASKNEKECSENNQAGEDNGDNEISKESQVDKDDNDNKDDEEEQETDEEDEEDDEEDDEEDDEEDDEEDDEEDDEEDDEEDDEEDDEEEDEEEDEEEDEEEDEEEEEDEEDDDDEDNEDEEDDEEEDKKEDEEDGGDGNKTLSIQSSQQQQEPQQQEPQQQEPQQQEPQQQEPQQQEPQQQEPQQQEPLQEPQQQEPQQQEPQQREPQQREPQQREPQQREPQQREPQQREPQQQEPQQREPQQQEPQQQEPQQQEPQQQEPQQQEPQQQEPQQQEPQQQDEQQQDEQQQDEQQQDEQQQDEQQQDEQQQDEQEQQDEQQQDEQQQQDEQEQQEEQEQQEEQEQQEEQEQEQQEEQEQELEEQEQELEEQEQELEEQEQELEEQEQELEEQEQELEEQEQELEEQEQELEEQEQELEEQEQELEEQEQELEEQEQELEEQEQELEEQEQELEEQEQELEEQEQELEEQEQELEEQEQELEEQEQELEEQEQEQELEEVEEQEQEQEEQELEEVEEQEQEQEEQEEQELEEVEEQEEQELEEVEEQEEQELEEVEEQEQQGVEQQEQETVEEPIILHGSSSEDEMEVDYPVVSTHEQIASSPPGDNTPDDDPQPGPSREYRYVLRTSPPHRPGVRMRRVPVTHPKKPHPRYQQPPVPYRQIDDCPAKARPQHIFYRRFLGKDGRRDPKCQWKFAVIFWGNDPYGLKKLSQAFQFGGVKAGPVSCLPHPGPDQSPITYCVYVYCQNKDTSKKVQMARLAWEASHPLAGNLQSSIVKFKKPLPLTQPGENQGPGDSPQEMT
Sequence of Tyrosine-protein phosphatase non-receptor type 7 (P35236 whole entry): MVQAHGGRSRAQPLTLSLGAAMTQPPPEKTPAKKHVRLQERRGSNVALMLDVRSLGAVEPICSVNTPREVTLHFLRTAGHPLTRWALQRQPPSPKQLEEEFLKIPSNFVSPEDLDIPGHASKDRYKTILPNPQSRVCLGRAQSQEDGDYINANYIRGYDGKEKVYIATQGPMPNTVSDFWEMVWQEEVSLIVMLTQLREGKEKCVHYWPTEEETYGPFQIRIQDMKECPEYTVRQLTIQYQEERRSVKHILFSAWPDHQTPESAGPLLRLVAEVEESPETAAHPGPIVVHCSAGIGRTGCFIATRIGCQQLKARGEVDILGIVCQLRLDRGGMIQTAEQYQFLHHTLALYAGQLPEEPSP

Take `COc1cc(C(=S)NCc2ccc(F)c(C)c2)ccc1O`: the results for the IC50 in assay [1] and in assay [2] were 4.33 µM (active) and > 100 µM (inactive), respectively.

As for `CN1C(=O)NC(c2ccccc2[N+](=O)[O-])C2=C1CCCC2=O` (configuration not stated), the concentration giving a half-maximal response (EC50) in [3] is 7.58 µM (inconclusive); in assay [5], 8.8 µM (active). The AC50 is 44.5 µM (active) on Keap1/Nrf2, 24.9 µM (active) at ORF 73, 54.3 µM (active) in assay [6] and 1.41 µM (active) on Protein S100-A4. Besides, the IC50 in assay [4] was > 20 µM (inactive); at Fibrinogen beta chain [7], > 83.3 µM (inactive); on Fibrinogen beta chain [8], 11.3 µM (inactive).

Regarding `CC(=O)Nc1ccc(NC(=O)c2ccccc2Br)cc1`, the half-maximal activity concentration (AC50) in assay [9] is 6.02 µM (active). Besides, the EC50 in assay [10] is 8.7 µM (active).

With `COc1cccnc1N1CCN(C(=O)c2ccc(Cl)cc2)CC1`, in the assay with Candida albicans, the half-maximal activity concentration (AC50) is 12.3 µM (active).

Regarding `Cc1ccc(Cn2c(=N)n(CC(=O)c3ccc([N+](=O)[O-])cc3)c3ccccc32)cc1`, the EC50 in [11] was 5.32 µM (active); in assay [13], 4.07 µM (active). Moreover, the AC50 in assay [12] is 6.42 µM (active); in the assay with A-375 it was 33.5 µM (active).

Regarding `CCCCCCCCCn1ccc(=N)cc1`, the half-inhibitory concentration (IC50) on Galanin receptor type 3 was 1.95 µM (active); with Jurkat it was 6.34 µM (active); in [20], > 80 µM (inactive). Besides, the EC50 in [14] was 9.21 µM (active); in the assay “cells”, > 29.9 µM (inactive); with BJ [19] it was 11.9 µM (active); in the assay with BJ [22], > 150 µM (inconclusive); in the assay with BJ [23], 9.76 µM (inconclusive). Besides, the concentration at half-maximal activity (AC50) in assay [15] is 8.77 µM (active); in assay [16], 0.848 µM (active); with INS1, 0.48 µM (active); in assay [17], 2.39 µM (active); in assay [18], 2 µM (active); in assay [21], 24.1 µM (active).
